Laboratory results taken from ChEMBL document CHEMBL4400553, “Semisynthesis of epoxy-pimarane diterpenoids from kirenol and their FXa inhibition activities” (Bioorg Med Chem, 2019).

Each compound was assayed against Coagulation factor X (Homo sapiens, UniProt P00742) (assay: Inhibition of human factor Xa using Z-D-Arg-Gly-Arg-pNA.2HCl as substrate preincubated for 15 mins followed by substrate addition by UV absorption analysis).
Sequence of Coagulation factor X (P00742 41-179 limits assumed): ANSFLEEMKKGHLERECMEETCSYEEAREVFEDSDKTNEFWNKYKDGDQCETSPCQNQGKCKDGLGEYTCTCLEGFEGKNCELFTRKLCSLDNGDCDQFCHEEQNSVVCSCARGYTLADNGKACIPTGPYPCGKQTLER
Sequence of Coagulation factor X (P00742 235-488 limits assumed): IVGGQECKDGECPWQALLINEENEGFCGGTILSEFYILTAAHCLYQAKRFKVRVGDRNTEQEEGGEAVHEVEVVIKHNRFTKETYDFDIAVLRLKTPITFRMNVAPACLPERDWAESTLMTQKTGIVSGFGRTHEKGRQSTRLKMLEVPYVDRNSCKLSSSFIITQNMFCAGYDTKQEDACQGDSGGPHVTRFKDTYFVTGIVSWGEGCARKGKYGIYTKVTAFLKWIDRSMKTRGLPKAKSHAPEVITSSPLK
For `C[C@@]1(CO)C[C@@H](O)C[C@]2(C)[C@@H]1CC[C@@]13O[C@@H](CO)[C@@](C)(CC[C@@H]21)[C@H]3Br`, the IC50 was 4.7 µM. Compound `C[C@@]1(CO)C=C2CC[C@@H]3[C@](C)(CO)C[C@@H](O)C[C@@]3(C)[C@@H]2CC1` has an IC50 of 0.96 µM. For `C[C@@]1(CO)C[C@@H](O)C[C@]2(C)[C@@H]1CC[C@@]13O[C@H](CO)[C@@](C)(CC[C@@H]21)[C@H]3Br`, the IC50 was 7.9 µM. `CC1(C)OC[C@@H]([C@]2(C)C=C3CC[C@@H]4[C@](C)(CO)C[C@@H](O)C[C@@]4(C)[C@@H]3CC2)O1` gave an IC50 of 7.2 µM. Work on `C[C@@]1(CO)C[C@@H](O)C[C@@]2(C)[C@@H]3CC[C@@]4(C)[C@H](OC[C@@H]4O)C3=CC[C@H]12` yielded an IC50 of 17.8 µM. `C[C@@]1(CO)C[C@@H](O)C[C@@]2(C)[C@@H]3CC[C@](C)(C(=O)O)C=C3CC[C@H]12` was tested, and the IC50 was 0.22 µM. For `C[C@@]1(CO)C[C@@H](O)C[C@@]2(C)[C@@H]3CC[C@](C)([C@@H](O)CO)C=C3CC[C@H]12` [KIRENOL], the IC50 was 2.5 µM. With `C[C@]12CC[C@@H]3[C@](CC[C@@H]4[C@](C)(CO)C[C@@H](O)C[C@]43C)(C1)OC2` the IC50 was 7.4 µM. With `C[C@]12CC[C@@H]3[C@](CC[C@@H]4[C@](C)(CO)C[C@@H](O)C[C@]43C)(C1)OC2=O` the IC50 was 1.7 µM. With `C[C@]12CC[C@@H]3[C@](CC[C@@H]4[C@](C)(CO)C[C@@H](O)C[C@]43C)(C1)O[C@H]2CO` the IC50 was 6.1 µM. `CC1(C)OC[C@@H]([C@@]2(C)CC[C@@H]3C4(CC[C@@H]5[C@](C)(CO)C[C@@H](O)C[C@@]35C)OC42)O1` (some centres not stated) gave an IC50 of 18.5 µM. Work on `C[C@@]1(CO)C[C@@H](O)C[C@@]2(C)C3=C(CC[C@H]12)[C@H]1OC[C@H](O)[C@@]1(C)CC3` yielded an IC50 of 27.9 µM.
